Experiment [1] is described as follows: Sweetness detection threshold level in water, multi-sip and swallow taste method. Type of experiment: in vivo, human. The conditions noted are these: in water at room temperature. From the text: As used herein, the terms “sweetness threshold,” “sweetness recognition threshold,” and “sweetness detection threshold” are understood to mean the level at which the lowest known concentration of a certain sweet compound that is perceivable by the human sense of taste and it can vary from person to person. For example, a typical sweetness threshold level for sucrose in water can be 0.5%.
Further for example, the at least one sweetness enhancer to be used can be assayed in water at least 25% lower and at least 25% higher than the sucrose detection level of 0.5% in water to determine the sweetness threshold level.
(§1) A first sip (approximately 2.2 mL) of a ca. 20 mL control composition was taken and swallowed. After waiting for a time ranging from 15 to 25 seconds, a second sip of control composition was taken and swallowed, and the sweetness and/or taste of the control composition was noted. After waiting for a time ranging from 15 to 25 seconds, these steps were repeated with a comparative composition. The sweetness and taste differences between the control and the comparative composition were noted. For each tested composition, this cycle was repeated once to confirm the initial findings. All samples were measured at average 23.0° C.±1° C. between samples for consistent comparison and to minimize any effects of temperature on the perceived taste or sweetness of the composition.
(§2) To perform the taste test, three sweetener samples were paired with one additive and taste tested as described above. A three minute break was taken before tasting another three sweetener samples paired with a different additive. Up to 10 additives per day were used to minimize a fatigue factor. Before tasting, at least 1.5 hours elapsed after ingestion of any food, drink or nicotine. The tests were repeated on a different date to validate the initial findings.
The sweetness detection threshold levels for 21 entities were measured by a single assessor in water at room temperature according to the multi-sip and swallow taste method described herein.

A short description of experiment [2]: Sweetness enhancement of glucose, fructose or sucrose at 6% SE in water by additive at its threshold level. Type of experiment: in vivo, human. Also noted: key: T: Slight thicker-like sweetness (not intensity factor).; No difference; N(S+): No difference but slightly more sweet (0.5-0.75%); +S: More sweetness intensity (~1.0% SE); ++S: Much more sweetness intensity (~2.0% SE). The conditions noted are these: room temperature, additive at its Table 1 threshold level; for Sensory result versus FRU 55,000 ppm: fructose at 6% SE in water; for Sensory result versus GLU 99,000 ppm: glucose at 6% SE in water; for Sensory result versus SUC 60,000 ppm: sucrose at 6% SE in water. As to the method: as §1, §2
The twenty-one entities above were combined in a concentration at the sweetness detection threshold level listed in Table 1, with one of Glucose (GLU), Fructose (FRU), and Sucrose (SUG), each at a fixed SE (Sucrose Equivalents) level of 6%. The sweetness of the compositions was measured as described above at room temperature.

[3] abbreviates: value is min. off-taste threshold.

On to `C=C1C[C@@]23CC[C@H]4[C@@](C)(CCC[C@@]4(C)C(=O)O[C@@H]4O[C@H](CO)[C@@H](O)[C@H](O)[C@H]4O[C@@H]4O[C@H](CO)[C@@H](O)[C@H](O)[C@H]4O)[C@@H]2CC[C@]1(O[C@@H]1O[C@H](CO)[C@@H](O)[C@H](O[C@@H]2O[C@H](CO)[C@@H](O)[C@H](O)[C@H]2O)[C@H]1O[C@@H]1O[C@H](CO)[C@@H](O)[C@H](O)[C@H]1O)C3` [Rebaudioside D], for which the “Sweetness Detection Threshold Level” value in experiment [1] (single assessor) was 25 ppm. Besides, in experiment [2], the “Sensory result versus FRU 55,000 ppm” value is on record as “N”, the “Sensory result versus GLU 99,000 ppm” value is “N” and the “Sensory result versus SUC 60,000 ppm” value is reported as “N(S+) (No difference but slightly more sweet (0.5-0.75%))”.
Take `C=C1C[C@@]23CC[C@H]4[C@@](C)(CCC[C@@]4(C)C(=O)O[C@@H]4O[C@H](CO)[C@@H](O)[C@H](O)[C@H]4O)[C@@H]2CC[C@]1(O[C@@H]1O[C@H](CO)[C@@H](O)[C@H](O)[C@H]1O[C@@H]1O[C@@H](C)[C@H](O)[C@@H](O)[C@H]1O)C3` [Dulcoside A]: the “Sweetness Detection Threshold Level” value in experiment [1] (single assessor) is 50 ppm. Moreover, in experiment [2], the “Sensory result versus FRU 55,000 ppm” value is “N”, the “Sensory result versus GLU 99,000 ppm” value is “N” and the “Sensory result versus SUC 60,000 ppm” value was “N”.
As for `C[C@H](CC[C@@H](O[C@@H]1O[C@H](CO[C@@H]2O[C@H](CO)[C@@H](O)[C@H](O)[C@H]2O)[C@@H](O)[C@H](O)[C@H]1O[C@@H]1O[C@H](CO)[C@@H](O)[C@H](O)[C@H]1O)C(C)(C)O)[C@H]1CC[C@@]2(C)[C@@H]3CC=C4[C@@H](CC[C@H](O[C@@H]5O[C@H](CO[C@@H]6O[C@H](CO)[C@@H](O)[C@H](O)[C@H]6O)[C@@H](O)[C@H](O)[C@H]5O)C4(C)C)[C@]3(C)[C@H](O)C[C@]12C` [Mogroside V], in experiment [1] (single assessor), the “Sweetness Detection Threshold Level” value stood at 20 ppm. For the same compound, in experiment [2], the “Sensory result versus FRU 55,000 ppm” value is recorded as “N”, the “Sensory result versus GLU 99,000 ppm” value is “N” and the “Sensory result versus SUC 60,000 ppm” value is on record as “N”.
Take `C[C@@]12CC[C@@H]3[C@@](CC[C@H]4[C@@]3(C)CCC[C@@]4(C)C(=O)OC3OC(CO)C(O)C(O)C3O)(CC1=O)C2` (stereo partly drawn) [13-methyl-16-oxo-17-norkauran-18-oic acid β-D-glucopyranosyl ester]: the “Sweetness Detection Threshold Level” value in experiment [1] (setting [3]) was determined as 15 ppm. In addition, in experiment [2], the “Sensory result versus FRU 55,000 ppm” value is reported as “N”, the “Sensory result versus GLU 99,000 ppm” value was “N” and the “Sensory result versus SUC 60,000 ppm” value is “N”.
Regarding Rebaudioside F, the “Sweetness Detection Threshold Level” value in experiment [1] (single assessor) came out at 25 ppm. Further, in experiment [2], the “Sensory result versus FRU 55,000 ppm” value is listed as “N”, the “Sensory result versus GLU 99,000 ppm” value is listed as “N” and the “Sensory result versus SUC 60,000 ppm” value is “N(S+) (No difference but slightly more sweet (0.5-0.75%))”.
Consider `C=C1C[C@@]23CC[C@H]4[C@@](C)(CCC[C@@]4(C)C(=O)O)[C@@H]2CC[C@]1(O[C@@H]1O[C@H](CO)[C@@H](O)[C@H](O)[C@H]1O[C@@H]1O[C@H](CO)[C@@H](O)[C@H](O)[C@H]1O)C3` [Steviolbioside], for which, in experiment [1] (single assessor), the “Sweetness Detection Threshold Level” value was 50 ppm. Moreover, in experiment [2], the “Sensory result versus FRU 55,000 ppm” value is “N”, the “Sensory result versus GLU 99,000 ppm” value is “N” and the “Sensory result versus SUC 60,000 ppm” value was “N”.
Regarding `C=C1C[C@@]23CC[C@H]4[C@@](C)(CCC[C@@]4(C)C(=O)OC4OC(C(=O)O)C(O)C(O)C4O)[C@@H]2CC[C@]1(O)C3` (stereo partly shown) [Steviol glucuronide], in experiment [1] (single assessor), the “Sweetness Detection Threshold Level” value is reported as 85 ppm. Also, in experiment [2], the “Sensory result versus FRU 55,000 ppm” value is “N”, the “Sensory result versus GLU 99,000 ppm” value is reported as “N” and the “Sensory result versus SUC 60,000 ppm” value is listed as “N”.
For the compound `C=C1C[C@@]23CC[C@H]4[C@@](C)(CCC[C@@]4(C)C(=O)O[C@@H]4O[C@H](CO)[C@@H](O)[C@H](O)[C@H]4O)[C@@H]2CC[C@]1(O[C@@H]1O[C@H](CO)[C@@H](O)[C@H](O[C@@H]2O[C@H](CO)[C@@H](O)[C@H](O)[C@H]2O)[C@H]1O)C3` [13-[(3-O-β-D-glucopyranosyl-β-D-glucopyranosyl)oxy] kaur-16-en-18-oic acid β-D-glucopyranosyl ester], the “Sweetness Detection Threshold Level” value in experiment [1] (single assessor) was determined as 35 ppm. Moreover, in experiment [2], the “Sensory result versus FRU 55,000 ppm” value was “N”, the “Sensory result versus GLU 99,000 ppm” value is listed as “N” and the “Sensory result versus SUC 60,000 ppm” value was “N”.
For the compound `C=C1C[C@@]23CC[C@H]4[C@@](C)(CCC[C@@]4(C)C(=O)O[C@@H]4O[C@H](CO)[C@@H](O)[C@H](O)[C@H]4O)[C@@H]2CC[C@]1(O[C@@H]1O[C@H](CO)[C@@H](O)[C@H](O)[C@H]1O[C@@H]1O[C@H](CO)[C@@H](O)[C@H](O)[C@H]1O)C3` [Stevioside], in experiment [1] (single assessor), the “Sweetness Detection Threshold Level” value is listed as 25 ppm. In addition, in experiment [2], the “Sensory result versus FRU 55,000 ppm” value was “N”, the “Sensory result versus GLU 99,000 ppm” value is “N” and the “Sensory result versus SUC 60,000 ppm” value is on record as “N”.
With `C=C1CC23CCC4C(C)(C(=O)OC5OC(CO)C(O)C(O)C5O)CCCC4(C)C2CCC1(O)C3` [13-hydroxy-kaur-16-en-18-oic acid β-D-glucopyranosyl ester], in experiment [1] (setting [3]), the “Sweetness Detection Threshold Level” value was 10 ppm. In addition, in experiment [2], the “Sensory result versus FRU 55,000 ppm” value is given as “N”, the “Sensory result versus GLU 99,000 ppm” value is “N” and the “Sensory result versus SUC 60,000 ppm” value is listed as “N”.
In the case of `C=C1C[C@@]23CC[C@H]4[C@@](C)(CCC[C@@]4(C)C(=O)O[C@@H]4O[C@H](CO)[C@@H](O)[C@H](O)[C@H]4O)[C@@H]2CC[C@]1(O[C@@H]1O[C@H](CO)[C@@H](O)[C@H](O[C@@H]2O[C@H](CO)[C@@H](O[C@H]4O[C@H](CO)[C@@H](O)[C@H](O)[C@H]4O)[C@H](O)[C@H]2O)[C@H]1O[C@@H]1O[C@H](CO)[C@@H](O)[C@H](O)[C@H]1O)C3` [13-[(2-O-β-D-glucopyranosyl-3-O-(4-O-α-D-glucopyranosyl)-β-D-glucopyranosyl-β-D-glucopyranosyl)oxy] kaur-16-en-18-oic acid β-D-glucopyranosyl ester], the “Sweetness Detection Threshold Level” value in experiment [1] (single assessor) is given as 50 ppm. In experiment [2], the “Sensory result versus FRU 55,000 ppm” value was “T”, the “Sensory result versus GLU 99,000 ppm” value is on record as “T” and the “Sensory result versus SUC 60,000 ppm” value is “N”.
Take `C=C1C[C@@]23CC[C@H]4[C@@](C)(CCC[C@@]4(C)C(=O)O[C@@H]4O[C@H](CO)[C@@H](O)[C@H](O)[C@H]4O)[C@@H]2CC[C@]1(O[C@@H]1O[C@H](CO)[C@@H](O)[C@H](O[C@@H]2O[C@H](CO)[C@@H](O)[C@H](O)[C@H]2O)[C@H]1O[C@@H]1O[C@H](CO)[C@@H](O)[C@H](O)[C@H]1O)C3` [Rebaudioside A]: in experiment [1] (single assessor), the “Sweetness Detection Threshold Level” value is 12.6 ppm. In experiment [2], the “Sensory result versus FRU 55,000 ppm” value is on record as “N”, the “Sensory result versus GLU 99,000 ppm” value was “N” and the “Sensory result versus SUC 60,000 ppm” value is “N”.
As for `CC1=CC23CCC4C(C)(C(=O)OC5OC(CO)C(O)C(O)C5O)CCCC4(C)C2CCC1(OC1OC(CO)C(O)C(OC2OC(CO)C(O)C(O)C2O)C1OC1OC(CO)C(O)C(O)C1O)C3` [13-[(2-O-β-D-glucopyranosyl-3-O-β-D-glucopyranosyl-β-D-glucopyranosyl)oxy] kaur-15-en-18-oic acid β-D-glucopyranosyl ester], the “Sweetness Detection Threshold Level” value in experiment [1] (single assessor) worked out at 25 ppm. For the same compound, in experiment [2], the “Sensory result versus FRU 55,000 ppm” value is given as “N(S+) (No difference but slightly more sweet (0.5-0.75%))”, the “Sensory result versus GLU 99,000 ppm” value is given as “N” and the “Sensory result versus SUC 60,000 ppm” value was “N(S+) (No difference but slightly more sweet (0.5-0.75%))”.

Source of the values: patent US20110160311A1, “Sweetness Enhancers, Compositions Thereof, and Methods for Use” (The Coca-Cola Company, priority 2009, published 2011).
